Earlier results, collected in patent EP4729530A1, “NOVEL PEPTIDE AND USE THEREOF” (Gemvax & Kael Co., Ltd., priority 2023, dated 2024).

Tests used:
[1] = read-out: cytotoxicity (GI50); cited from earlier work
tau = tau (Homo sapiens, UniProt P10636); conditions: read-out: tau aggregation inhibition range (EC50); cited from earlier work
tau, sequence (P10636 whole entry): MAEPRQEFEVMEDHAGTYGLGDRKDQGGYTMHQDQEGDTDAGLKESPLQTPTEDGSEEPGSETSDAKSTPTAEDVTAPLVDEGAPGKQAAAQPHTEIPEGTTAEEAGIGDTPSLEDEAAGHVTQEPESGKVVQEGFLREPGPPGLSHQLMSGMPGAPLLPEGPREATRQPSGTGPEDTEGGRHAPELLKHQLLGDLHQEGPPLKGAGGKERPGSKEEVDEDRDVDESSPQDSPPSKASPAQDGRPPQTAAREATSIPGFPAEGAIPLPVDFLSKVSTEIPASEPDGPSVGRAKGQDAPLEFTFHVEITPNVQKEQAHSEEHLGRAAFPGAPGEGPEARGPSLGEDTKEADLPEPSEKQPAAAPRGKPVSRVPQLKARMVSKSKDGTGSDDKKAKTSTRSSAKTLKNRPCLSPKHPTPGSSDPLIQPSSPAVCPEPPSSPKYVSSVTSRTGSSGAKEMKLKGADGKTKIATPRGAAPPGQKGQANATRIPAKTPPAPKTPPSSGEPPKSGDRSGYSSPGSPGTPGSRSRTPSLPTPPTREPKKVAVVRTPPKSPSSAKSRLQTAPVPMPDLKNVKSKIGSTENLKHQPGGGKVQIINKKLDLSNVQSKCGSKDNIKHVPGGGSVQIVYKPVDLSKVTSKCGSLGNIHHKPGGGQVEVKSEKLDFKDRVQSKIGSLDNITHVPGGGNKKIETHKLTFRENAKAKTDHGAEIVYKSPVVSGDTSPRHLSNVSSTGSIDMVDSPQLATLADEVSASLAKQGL

For CN(C)c1ccc2c(c1)Sc1cc(N(C)C)ccc1N2 [LMTM], the GI50 [1] is given as 6.4 ± 0.3 µM and the EC50 (tau) is given as 2.2 ± 0.2 µM.
